Results: US20180200326A1, “ANG-(1-7) AND DERIVATIVE OLIGOPEPTIDES FOR THE TREATMENT OF TRAUMATIC BRAIN INJURY AND OTHER COGNITIVE IMPAIRMENTS” (Arizona Board Of Regents On Behalf Of The University of …, priority 2017, published 2018)
Where two headings read alike, the source gives them in different places. Peptide text beside a SMILES is read from it. * marks the point of attachment. X2 = OC[C@H]1O[C@@H](O[C@H]2[C@H](O)[C@@H](O)C(*)O[C@@H]2CO)[C@H](O)[C@@H](O)[C@H]1O; X1 = OC[C@H]1OC(*)[C@H](O)[C@@H](O)[C@@H]1O

Tests used:
[1] = In Vitro Serum Half-Life Assay; details: mouse
Method: (§3) Aliquots were withdrawn at the indicated time intervals and the peptide concentration was determined using HPLC-MS and expressed as a percentage of the initial concentration.

[2] = test system: human umbilical vascular endothelial cells (HUVEC); experiment: xCELLigence RTCA cell activation (cell impedance); format: cell-based; details: average of 4 wells, normalized to CI at compound addition
Excerpt: (§1) To isolate primary hippocampal CA1 neuronal cells, whole brain was removed from neonatal rat pups (1-2 day old) and the cortices dissected away. The hippocampus was isolated and the CA1 field was excised and placed in buffer. After gentle disruption in digestion buffer, the cells were counted, placed in culture media, and plated in a 96-well format coated with poly-d-lysine. At the time of plating, cells were approximately at 50% density and were allowed to culture to 70-80% density before starting the assay. Commercially available HUVEC (Life Technologies/Thermo Fisher) was thawed and plated (5000-10,000 cells/well) in a 96-well format coated with gelatin. HUVEC cells were allowed to culture overnight before starting the assay.
The xCELLigence system Real-Time Cell Analyzer (RTCA), developed by Roche Applied Science, uses microelectronic biosensor technology to do dynamic, real-time, label-free, and non-invasive analysis of cellular events including G-protein receptor activation of cells. The RTCA analysis was utilized to measure the potency and relative ability of oligopeptides of the invention and native Ang-(1-7) to activate human umbilical vascular endothelial cells (HUVEC) in culture. Following uniform cellular adherence based on a linear increase in cell impedance (CI), HUVECs were treated with Ang-(1-7) and oligopeptides of the invention. Each trace of the CI over time in FIG. 1 represents the average of 4 wells normalized to CI at the time of compound addition.

[3] = test system: human umbilical vascular endothelial cells (HUVEC); experiment: NO production assay (DAF-FM fluorescence, microplate reader); format: cell-based; details: 5 minutes exposure; for NO over control levels (relative peak fluorescence intensity): normalized to control fluorescence
Excerpt: as §1
As a screen for mechanisms of action of oligopeptides of the invention, the ability to increase NO production of three oligopeptides of the invention (PN-A3, PN-A4 and PN-A5) were characterized and compared to native Ang-(1-7). Human umbilical vascular endothelial cells (HUVEC) culture plates received fluorescence reaction buffer (0.2 M phosphate buffer, pH 7, 1 mM EDTA, 0.1% glucose) containing diaminofluorescein-FM diacetate (DAF-FM, 1 μM) to measure real-time NO production. Time-resolved (10 minutes) fluorescent intensity was detected using a BioTek Synergy 2 microplate reader with excitation at 485 nm and emission at 535 nm. DAF-FM is a sensitive flourometric derivative for the selective detection of NO in live cells.
Values were normalized to control fluorescence.

[4] = test system: CHF mice (object recognition memory impairment); experiment: Novel Object Recognition (NOR) in congestive heart failure mice; format: in vivo, mouse; details: 1 mg/kg/day subcutaneous, approximately 21 days, n=11, DRatio=(t novel−t familiar)/(t novel+t familiar), CHF-saline M=−0.05, Sham-saline M=+0.52
Method: (§2) A total of 33, male C57Bl/6J adult mice (Harlan, 8-10 weeks old) were used. Mice were randomly assigned to either the sham (n=12) or congestive heart failure (CHF) group (n=21). Experimental groups are described as follows: sham+saline, CHF+saline, CHF+PN-A5. All mice prior to surgery were weighed and anesthetized. For the CHF mice, MI was induced by ligation of the left coronary artery (LCA). Under anesthesia (2.5% isoflurane in a mixture of air and O2) a thoracotomy was performed at the fourth left intercostal space and the LCA permanently ligated to induce a myocardial infarction (MI). […]
The apparatus consisted of an evenly illuminated Plexiglas box (12 cm×12 cm×12 cm) placed on a table inside an isolated observation room. […] The mouse behavior and exploration of objects was recorded with a digital camera. […]
The novel object recognition task included 3 phases: habituation phase, familiarization phase, and test phase. […] Exploration was scored by an observer blind to the mouse's surgical group (CHF vs. Sham). […]
Discrimination ratios were calculated from the time spent exploring the novel object minus time spent exploring the familiar object during the test phase divided by the total exploration time. […] Data were analyzed from first 2 minutes of ‘test phase’. […]

[5] = test system: CHF mice (spatial memory impairment); experiment: Morris water task (spatial memory) in congestive heart failure mice; format: in vivo, mouse; details: 1 mg/kg/day subcutaneous, approximately 25 days, day 3 of Morris swim task, n=11, CHF-saline M=32.5
Method: as §2, with “(MI). Occlusion of the LCA was confirmed by observing blanching, a slight change in color of the anterior wall of the left ventricle downstream of the ligature. Sham mice underwent the same procedure with the exception of ligating the LCA.” for “(MI).”
During the spatial version of the Morris water task, all animals were given 6 training trials per day over 4 consecutive days. […] Performance on the swim task was analyzed with a commercial software application (ANY-maze, Wood Dale, Ill.). Because different release locations and differences in swimming velocity produce variability in the latency to reach the escape platform, a corrected integrated path length (CIPL) was calculated to ensure comparability of mice performance across different release locations. […]

[6] = In vivo serum and CSF concentration after subcutaneous injection; details: naïve mice; 10 mg/kg subcutaneous; microdialysis probe; corrected for basal CSF levels
Method: (§4) The peptides (10 mg/kg) or vehicle control were individually subcutaneously injected into naïve mice. Serum concentrations were determined every 10 minutes by HPLC-MS using a 20-30 μl blood sample. […] CSF samples were simultaneously withdrawn from the same animals via a microdialysis probe and assayed for the peptide concentration and corrected for basal CSF levels.

[7] = mouse, serum
Method: as §3

[8] = mouse, in vivo, sc, 10 mg/kg
Method: as §4

[9] = molecular target: T1, Mas receptor (MasR) (Homo sapiens, UniProt P04201); details: binding to GPCR Mas receptor (MasR); cited from earlier work
T1 sequence (P04201 1-325): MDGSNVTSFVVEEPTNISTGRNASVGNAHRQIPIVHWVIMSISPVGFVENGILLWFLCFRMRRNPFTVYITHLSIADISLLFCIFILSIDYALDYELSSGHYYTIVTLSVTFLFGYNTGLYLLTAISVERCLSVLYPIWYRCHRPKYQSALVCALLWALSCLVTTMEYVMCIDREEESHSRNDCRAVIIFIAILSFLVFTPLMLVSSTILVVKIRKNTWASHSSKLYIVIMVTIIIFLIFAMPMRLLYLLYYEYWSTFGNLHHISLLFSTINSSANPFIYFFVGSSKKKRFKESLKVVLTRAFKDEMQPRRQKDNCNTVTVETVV

[10] = in vivo; details: mouse, sc, 10 mg/kg
Method: as §4

Compound	increase in CI (cell impedance) over the native Ang-(1-7) ([2]; 10 nM) [fold]	increase in CI (cell impedance) over the native Ang-(1-7) ([2]; 100 nM) [fold]	NO over control levels (relative peak fluorescence intensity) [3]	half-life [7] [min]	further results
CC[C@H](C)[C@H](NC(=O)[C@H](Cc1ccc(O)cc1)NC(=O)[C@@H](NC(=O)[C@H](CCCNC(=N)N)NC(=O)[C@@H](N)CC(=O)O)C(C)C)C(=O)N[C@@H](Cc1c[nH]cn1)C(=O)N[C@@H](COC1O[C@H](CO)[C@@H](O[C@@H]2O[C@H](CO)[C@H](O)[C@H](O)[C@H]2O)[C@H](O)[C@H]1O)C(N)=O (stereo partly drawn) [PN-A6, Ang 1-6-Ser(OLac)-NH2] (H-DRVYIHS(X2)-NH2)	–	–	–	–	half-life [1]: 348 min
CC[C@H](C)[C@H](NC(=O)[C@H](Cc1ccc(O)cc1)NC(=O)[C@@H](NC(=O)[C@H](CCCNC(=N)N)NC(=O)[C@@H](N)CC(=O)O)C(C)C)C(=O)N[C@@H](Cc1c[nH]cn1)C(=O)N[C@@H](COC1O[C@H](CO)[C@@H](O)[C@H](O)[C@H]1O)C(N)=O (stereo partly drawn) [PN-A5, Ang 1-6-Ser(OGlc)-NH2] (H-DRVYIHS(X1)-NH2; N-terminus assumed)	~2	~2	significant elevation	–	NO production compared with native Ang-(1-7) ([3]; p<0.05): significantly enhancing NO production; discrimination ratio in NOR test (mean M) [4]: +0.38; corrected integrated path length (CIPL), mean M [5]: 23.5; maximum CSF concentration [6]: about 400 nM
PN-A4: native Ang(1-7) sequence with added C-terminal Ser8, lactosylated and C-terminally amidated (NH2); SEQ ID NO: 9 (DRVYIHPS; lactosylated, C-terminal amide; (8)..(8) Glycosylated; (8)..(8) Carboxy terminal NH2; See specification as filed for detailed description of substitutions and preferred embodiments)	–	~2	significant elevation	–	–
CC[C@H](C)[C@H](NC(=O)[C@H](Cc1ccc(O)cc1)NC(=O)[C@@H](NC(=O)[C@H](CCCNC(=N)N)NC(=O)[C@@H](N)CC(=O)O)C(C)C)C(=O)N[C@@H](Cc1c[nH]cn1)C(=O)N1CCC[C@H]1C(N)=O [PN-A2, Ang 1-7-NH2]	–	–	–	21	–
PN-A3: native Ang(1-7) sequence with added C-terminal Ser8, glucosylated and C-terminally amidated (NH2); SEQ ID NO: 9 (DRVYIHPS; glucosylated, C-terminal amide; (8)..(8) Glycosylated; (8)..(8) Carboxy terminal NH2; See specification as filed for detailed description of substitutions and preferred embodiments)	~2	~2	significant elevation	–	–
CC[C@H](C)[C@H](NC(=O)[C@H](Cc1ccc(O)cc1)NC(=O)[C@@H](NC(=O)[C@H](CCCNC(=N)N)NC(=O)[C@@H](N)CC(=O)O)C(C)C)C(=O)N[C@@H](Cc1c[nH]cn1)C(=O)N1CCC[C@H]1C(=O)O [native Ang-(1-7), Asp-Arg-Val-Tyr-Ile-His-Pro]	–	–	–	14	maximum CSF concentration [8]: about 50 nM; Kd [9]: 0.83 nM; Cmax [10]: ~200 nM
